{
  "source": "patent US20240368226A1",
  "about": "“Cyclic Cell Penetrating Peptides For Treating Neisseria Gonorrhoeae Infections” (priority 2023, published 2024)",
  "key": {"[1]": {"system": "End1/E6E7 endocervical cells", "experiment": "LDH release cytotoxicity, End1/E6E7", "assay_type": "cell-based, human", "set-up": "cytotoxicity, End1/E6E7: unit of the concentration uncertain", "protocol": "(§1) To determine whether the CPPs were cytotoxic for human cells, the relative amount of LDH released from immortalized End1/E6E7 endocervical cells, ME 180 cervical cells and THP-1 monocytic cells was measured following 18 h treatment (FIG. 9A-C). […] The cytotoxicity of the endogenous AMP LL-37 was analyzed as a comparator.\n(§2) We analyzed the levels of lactate dehydrogenase (LDH) released from dying human End1/E6E7 epithelial endocervical cells1, ME-180 epithelial cervical2, and THP-1 monocytes due to cytotoxicity from exposure to the CPP structural analogs or LL-37 using the Cyquant LDH Cytotoxicity Assay Kit (Invitrogen ThermoFisher Scientific). The THP-1 cells were activated overnight by incubation with 10 ng/ml of phorbol myristate acetate (PMA; Sigma-Aldrich). After washing, cells were trypsinized, and then 1.0×10^4 cells in 100-μL media were plated per well in 96-well plates. For the activated THP-1 and ME-180 cells, Opti-MEM (Gibco) with 1% FBS was used. For the End1/E6E7 cells Keratinocyte-Scrum Free Media (ThermoFisher Scientific) with supplements was used. After plating, the activated THP-1 cells were incubated for 4-5 h and the End1/E6E7 and ME-180-cells were incubated overnight. Next stock solutions of the CPPs or LL-37 were diluted in PBS and aliquots were added to wells to create final concentrations of 100 and 200 μM of the CPPs, or 20 and 40 μM of LL-37 in total volumes of 100 μL per well. Negative control wells were treated with vehicle only, which was 1% DMSO in media. Vehicle controls for LL-37 were wells with Opti-MEM with 1% FBS only. After adding the test reagents, plates were gently mixed and incubated at 37° C. and 5% CO2 for 18 h. Positive control wells were treated with 10 μL of the Triton X-100 Lysis Buffer provided with the Cyquant kit according to the directions of the vendor. Then the levels of LDH in supernatants were quantified using a kit (Roche, Mannheim, DE, USA) with detection on an Epoch (Biotek Instruments, Winooski, Vermont, USA) microtiter plate reader at 490 nm with 680 nm subtracted. The results were reported as the percentage of LDH released from cells treated with LL-37 or CPP relative to LDH released from control cells treated with vehicle-only."}, "[2]": {"system": "activated THP-1 monocytic cells", "experiment": "LDH release cytotoxicity, THP-1", "assay_type": "cell-based, human", "set-up": "cytotoxicity, THP-1: unit of the concentration uncertain", "conditions": "for cytotoxicity, THP-1: 100 (unit uncertain)", "protocol": "as §1, §2"}, "ME-180 cervical cells": {"system": "ME-180 cervical cells", "experiment": "LDH release cytotoxicity, ME-180", "assay_type": "cell-based, human", "set-up": "cytotoxicity, ME-180: unit of the concentration uncertain", "protocol": "as §1, §2"}, "sheep red blood cells": {"system": "sheep red blood cells", "assay_type": "cell-based", "protocol": "In vitro assessment of hemolysis is important in determining the potential cytotoxicity of any material or drug that would be in contact with blood. Various protocols for determining hemolytic potential have been reported. A procedure recommended for analysis of the hemolytic potential of drug substances for RBCs using 0.1% Triton as the positive control and a 1 h incubation period was performed.\nThe CPPs or the vehicle (DMSO and 0.1% Triton X-100), were diluted in PBS. Washed pooled sheep red blood cells (sRBCs; Rockland, R405-0050, 10% v/v) were diluted to 2.1% in PBS. Then 190 μL of the cell suspension was added to the wells of a 96-well plate (Corning CellBIND). Solutions (10 μL) containing the linear or DE or TE cyclized forms of the CPP at 4,000 or 2,000 μM or the DMSO and PBS vehicle were added to wells with sRBCs in triplicate. As a positive control three wells were treated with 10 μL of 2% Triton X-100. The 96 well plates were incubated at 37° C. and 5% CO2 for 1 h, and then centrifugated at 1,000×g for 5 min. Supernatant (100 μL) was transferred to a new plate and then analyzed on the Epoch microtiter plate reader at 405-nm. Results are expressed as % hemolysis, which was calculated according to the following equation: % hemolysis=[(405 nm absorbance (Abs) of RBCs in the peptide solution-405 nm Abs in PBS)/(405 nm Abs in 0.1% Triton X-100-405 nm ABs in PBS]×100. Values of >25% hemolysis were defined as poor, 10-25% medium, and <10% as non-hemolytic according to recommended guidelines."}, "[3]": {"system": "S. aureus strains 8325-4 and Newman", "assay_type": "cell-based, Staphylococcus aureus", "protocol": "The sensitivity of a Gram positive species was also tested.\nN. flavescens strain 4322, N. lactamica strain 1934, and N. subflava strain 52, were available from the collections of the late Dr. Herman Schneider of the Walter Reed Army Institute of Research and of the Neisseria Repository that was formerly housed at UC Berkeley. The 8325-4 and Newman are strains of S. aureus. The latter is β-hemolytic.\nS. aureus were grown overnight on Difco GC agar containing 1% BBL Isovitalex Enrichment. Using a sterile cotton swab, bacterial colonies were placed in suspension in GC broth containing 1% BBL Isovitalex. Absorbance of the bacterial suspension at 595 nm was determined to enable dilution to approximately 4×10^6 cells/mL in GC broth. Aliquots of the suspension containing 8×10^5 bacteria along with the CPPs, diluted from stock solutions in DMSO, were added in GC broth containing 1% BBL Isovitalex to make a total volume of 200 μL/well. Bacteria in GC broth with Isovitalex and 1% DMSO were added to vehicle-only control wells. […] After incubation in 5% CO2 at 37° C. for 18 h, plates were analyzed at 600-nm on an Epoch microtiter plate reader. The percentage inhibition of each sample was determined relative to the absorbance of the blank (GC broth only) and the vehicle-only controls. […] If no growth was observed on the plate, then that test concentration was determined to be inhibitory."}, "[4]": {"conditions": "in vivo; cited from earlier work"}, "[5]": {"system": "invasion of ME-180 cells by FA1090 1-81-S2 gonococci", "experiment": "Invasion of human cervical epithelial cells by gonococci", "assay_type": "cell-based", "conditions": "LL-37 20 μM; moi of 5; 4 h", "protocol": "Because the CPP was bactericidal for N. gonorrhoeae and, furthermore, could penetrate the bacteria, it was postulated that treatment may prevent invasion of human epithelial cells. Therefore, the effect of the CPP on the invasion of a human cervical epithelial cell line, ME-180, was tested using the AMP LL-37 for comparison. FA1090 1-81-S2 gonococci at a moi of 5 were incubated with ME-180 cells in 96-well plates with vehicle only, LL-37 (20 μM), or the CPP (100 μM) for 4 h."}},
  "note": "Where a SMILES comes first, the peptide text is derived from it. Bridges are numbered along the chain shown (N, C = ends). [ ]: non-standard residue; d: D form. Ahx = NCCCCCC(=O)O",
  "data": [
    {"molecule": "N=C(N)NCCC[C@@H]1NC(=O)CCCCCNC(=O)[C@H](CCCNC(=N)N)NC(=O)[C@H](CCCNC(=N)N)NC(=O)CCCCCNC(=O)[C@H](CCCNC(=N)N)NC(=O)[C@H](CCCNC(=N)N)NC(=O)CCCCCNC(=O)[C@H](CCCNC(=N)N)NC(=O)[C@H](CCCNC(=N)N)NC(=O)CCCCCNC(=O)[C@H](CCCNC(=N)N)NC(=O)[C@@H](N)CSSC[C@@H](C(N)=O)NC1=O", "note": "[DS cyclized CPP, CRXRRXRRXRRXRC—NH2] (H-CR[Ahx]RR[Ahx]RR[Ahx]RR[Ahx]RC-NH2; disulfide 1-14)", "values": [
      {"measurement": "percentage of dead cells compared to the Triton X-100 treated controls, End1/E6E7", "setting": "[1]; 100 and 200 mM", "result": "less than 20%"},
      {"measurement": "cell death (LDH), THP-1", "setting": "[2]; 100 µM, 18 h", "result": "significantly increased"},
      {"measurement": "percentage of dead cells compared to the Triton X-100 treated controls, THP-1", "setting": "[2]; 100 and 200 mM", "result": "less than 20%"},
      {"measurement": "percentage of dead cells compared to the Triton X-100 treated controls, ME-180", "setting": "ME-180 cervical cells; 100 and 200 mM", "result": "less than 20%"},
      {"measurement": "hemolysis of sheep RBCs", "setting": "sheep red blood cells", "result": "no hemolysis"}
    ]},
    {"molecule": "N=C(N)NCCC[C@@H]1NC(=O)CSC[C@@H](C(N)=O)NC(=O)[C@H](CCCNC(=N)N)NC(=O)CCCCCNC(=O)[C@H](CCCNC(=N)N)NC(=O)[C@H](CCCNC(=N)N)NC(=O)CCCCCNC(=O)[C@H](CCCNC(=N)N)NC(=O)[C@H](CCCNC(=N)N)NC(=O)CCCCCNC(=O)[C@H](CCCNC(=N)N)NC(=O)[C@H](CCCNC(=N)N)NC(=O)CCCCCNC1=O", "note": "[TE cyclized CPP, c [RXRRXRRXRRXRC(S—)]] ({CH2CO}-R[Ahx]RR[Ahx]RR[Ahx]RR[Ahx]RC-NH2; thioether N-13)", "values": [
      {"measurement": "cytotoxicity compared to DS cyclized CPP, End1/E6E7", "setting": "[1]; 200 μM, 18 h", "result": "less cytotoxic compared to the DS cyclized CPP"},
      {"measurement": "cytotoxicity compared to linear CPP, End1/E6E7", "setting": "[1]; 200 μM, 18 h", "result": "less cytotoxic compared to the linear CPP"},
      {"measurement": "cytotoxicity, End1/E6E7", "setting": "[1]; 100 (unit uncertain)", "result": "virtually no cytotoxicity"},
      {"measurement": "cytotoxicity compared to DS cyclized CPP, THP-1", "setting": "[2]; 200 μM, 18 h", "result": "less cytotoxic compared to the DS cyclized CPP"},
      {"measurement": "cytotoxicity compared to linear CPP, THP-1", "setting": "[2]; 200 μM, 18 h", "result": "more cytotoxic"},
      {"measurement": "cytotoxicity, THP-1", "setting": "[2]", "result": "virtually no cytotoxicity"},
      {"measurement": "MIC for S. aureus", "setting": "[3]", "result": "> 100", "unit": "µM"},
      {"measurement": "cytotoxicity compared to DS cyclized CPP, ME-180", "setting": "ME-180 cervical cells; 200 μM, 18 h", "result": "less cytotoxic compared to the DS cyclized CPP"},
      {"measurement": "cytotoxicity, ME-180", "setting": "ME-180 cervical cells; 100 (unit uncertain)", "result": "virtually no cytotoxicity"},
      {"measurement": "hemolysis of sheep RBCs", "setting": "sheep red blood cells", "result": "no hemolysis"}
    ]},
    {"molecule": "CC(=O)N[C@H](CSSC[C@H](N)C(=O)O)C(=O)N[C@H](C)C(=O)N[C@H](CCCNC(=N)N)C(=O)N[C@H](CCCNC(=N)N)C(=O)N[C@H](CCCNC(=N)N)C(=O)N[C@H](C)C(=O)N[C@H](CCCNC(=N)N)C(N)=O", "note": "[etelcalcetide]", "values": [
      {"measurement": "effective half-life", "setting": "[4]", "result": "72 to 96", "unit": "h"}
    ]},
    {"molecule": "N=C(N)NCCC[C@H](NC(=O)CCCCCNC(=O)[C@H](CCCNC(=N)N)NC(=O)[C@H](CCCNC(=N)N)NC(=O)CCCCCNC(=O)[C@H](CCCNC(=N)N)NC(=O)[C@H](CCCNC(=N)N)NC(=O)CCCCCNC(=O)[C@H](CCCNC(=N)N)NC(=O)[C@H](CCCNC(=N)N)NC(=O)CCCCCNC(=O)[C@@H](N)CCCNC(=N)N)C(=O)O", "note": "[linear CPP, RXRRXRRXRRXR, reference compound] (H-R[Ahx]RR[Ahx]RR[Ahx]RR[Ahx]R-OH)", "values": [
      {"measurement": "cytotoxicity, End1/E6E7", "setting": "[1]; 100 (unit uncertain)", "result": "virtually no cytotoxicity"},
      {"measurement": "cytotoxicity, THP-1", "setting": "[2]", "result": "virtually no cytotoxicity"},
      {"measurement": "cell death (LDH released), THP-1", "setting": "[2]; 100 or 200 μM, 18 h", "result": "not significantly increased"},
      {"measurement": "cytotoxicity, ME-180", "setting": "ME-180 cervical cells; 100 (unit uncertain)", "result": "virtually no cytotoxicity"},
      {"measurement": "hemolysis of sheep RBCs", "setting": "sheep red blood cells", "result": "no hemolysis"}
    ]},
    {"molecule": "LL-37 [reference compound]", "values": [
      {"measurement": "LDH levels, End1/E6E7", "setting": "[1]; LL-37 20 µM, 18 h", "result": "more than doubled"},
      {"measurement": "cytotoxicity, End1/E6E7", "setting": "[1]; LL-37 20 and 40 mM", "result": "significant cytotoxicity"},
      {"measurement": "levels of cell death compared to the vehicle-only control, THP-1", "setting": "[2]; 20 or 40 μM LL-37, 18 h, p<0.001", "result": "more than doubled"},
      {"measurement": "invasion of ME-180 cells", "setting": "[5]", "result": "completely inhibited invasion"},
      {"measurement": "LDH levels, ME-180", "setting": "ME-180 cervical cells; LL-37 20 µM, 18 h", "result": "more than doubled"},
      {"measurement": "cytotoxicity, ME-180", "setting": "ME-180 cervical cells; LL-37 20 and 40 mM", "result": "significant cytotoxicity"}
    ]}
  ]
}
